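Interpolation was linear, between the two tested concentrations surrounding the appropriate level; five concentrations were tested over 48 hours in 96-well plates. GI50 is the concentration that inhibits growth by half.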 The source made the active and inactive calls. No stated cut-off is given here; in the data, active = GI50 up to about 1.1 µM and inactive = higher.
Legend:
Assay in all cases: growth of human tumour cells (NCI), 48 h
[1] = test system: CCRF-CEM
[2] = test system: HCC 2998
[3] = test system: M14
[4] = test system: PC-3
[5] = test system: NCI-H460
[6] = test system: NCI/ADR-RES
[7] = test system: KM12
[8] = test system: MDA-MB-231
[9] = test system: HOP-62
[10] = test system: SF-539
[11] = test system: K562
[12] = test system: SF-295
[13] = test system: MDA-MB-435
[14] = test system: ACHN
[15] = test system: SW-620
[16] = test system: RXF 393
[17] = test system: UACC-62
[18] = test system: UACC-257
[19] = test system: TK-10
[20] = test system: MCF7
[21] = test system: OVCAR-4
[22] = test system: T47D
[23] = test system: COLO 205
[24] = test system: IGROV-1
[25] = test system: SK-OV-3
[26] = test system: LOX IMVI
[27] = test system: NCI-H522
[28] = test system: NCI-H226
[29] = test system: A498
[30] = test system: U-251
[31] = test system: BT-549
[32] = test system: OVCAR-5
[33] = test system: RPMI-8226
[34] = test system: DU-145
[35] = test system: SK-MEL-2
[36] = test system: MOLT-4
[37] = test system: HCT-15
[38] = test system: SK-MEL-28
[39] = test system: SNB-19
[40] = test system: SR
[41] = test system: Hs-578T
[42] = test system: SF-268
[43] = test system: A549
[44] = test system: OVCAR-3
[45] = test system: EKVX
[46] = test system: SNB-75
[47] = test system: HL-60
[48] = test system: UO-31
[49] = test system: HCT-116
[50] = test system: OVCAR-8
[51] = test system: SK-MEL-5
[52] = test system: Malme-3M
[53] = test system: CAKI-1
[54] = test system: 786-0
[55] = test system: HT-29
[56] = test system: SN12C
[57] = test system: NCI-H23
[58] = test system: MDA-N
[59] = test system: HOP-92

O=C(C#Cc1ccccc1)C1=Cc2ccccc2OC1
GI50 [1]: 0.198 µM (active) | GI50 [2]: 7.38 µM (inactive) | GI50 [3]: 3.01 µM (inactive) | GI50 [4]: 4.34 µM (inactive) | GI50 [5]: 4.83 µM (inactive) | GI50 [6]: 2.79 µM (inactive) | GI50 [7]: 4.25 µM (inactive) | GI50 [8]: 3.21 µM (inactive) | GI50 [9]: 13.6 µM (inactive) | GI50 [10]: 1.93 µM (inactive) | GI50 [11]: 2.61 µM (inactive) | GI50 [12]: 20.7 µM (inactive) | GI50 [13]: 3.86 µM (inactive) | GI50 [14]: 2.17 µM (inactive) | GI50 [15]: 2.22 µM (inactive) | GI50 [16]: 3 µM (inactive) | GI50 [17]: 1.94 µM (inactive) | GI50 [18]: 2.7 µM (inactive) | GI50 [19]: 1.9 µM (inactive) | GI50 [20]: 1.42 µM (inactive) | GI50 [21]: 3.34 µM (inactive) | GI50 [22]: 3.26 µM (inactive) | GI50 [23]: 1.92 µM (inactive) | GI50 [24]: 2.38 µM (inactive) | GI50 [25]: 15 µM (inactive) | GI50 [26]: 0.783 µM (active) | GI50 [27]: 1.37 µM (inactive) | GI50 [28]: 2.55 µM (inactive) | GI50 [29]: 19.2 µM (inactive) | GI50 [30]: 3.6 µM (inactive) | GI50 [31]: 2.16 µM (inactive) | GI50 [32]: 2.99 µM (inactive) | GI50 [33]: 2.71 µM (inactive) | GI50 [34]: 5.53 µM (inactive) | GI50 [35]: 3.94 µM (inactive) | GI50 [36]: 3.33 µM (inactive) | GI50 [37]: 2.37 µM | GI50 [38]: 7.53 µM (inactive) | GI50 [39]: 15 µM (inactive) | GI50 [40]: 7.23 µM (inactive) | GI50 [41]: 8.26 µM (inactive) | GI50 [42]: 5.5 µM (inactive) | GI50 [43]: 9.31 µM (inactive) | GI50 [44]: 2.35 µM (inactive) | GI50 [45]: 2.09 µM (inactive) | GI50 [46]: 6.14 µM (inactive) | GI50 [47]: 2.19 µM (inactive) | GI50 [48]: 2.06 µM (inactive) | GI50 [49]: 1.92 µM (inactive) | GI50 [50]: 2.39 µM (inactive) | GI50 [51]: 2.08 µM (inactive) | GI50 [52]: 4.2 µM (inactive) | GI50 [53]: 1.88 µM (inactive) | GI50 [54]: 2.4 µM (inactive) | GI50 [55]: 2.11 µM (inactive) | GI50 [56]: 3.85 µM (inactive) | GI50 [57]: 2.14 µM (inactive)

NC(N)=NC(P(=O)(O)O)P(=O)(O)O
GI50 [58]: > 100 µM (inactive) | GI50 [2]: > 100 µM (inactive) | GI50 [3]: > 100 µM (inactive) | GI50 [4]: > 100 µM (inactive) | GI50 [5]: > 100 µM (inactive) | GI50 [6]: > 100 µM (inactive) | GI50 [7]: > 100 µM (inactive) | GI50 [8]: > 100 µM (inactive) | GI50 [9]: > 100 µM (inactive) | GI50 [10]: > 100 µM (inactive) | GI50 [12]: > 100 µM (inactive) | GI50 [14]: > 100 µM (inactive) | GI50 [16]: > 100 µM (inactive) | GI50 [17]: > 100 µM (inactive) | GI50 [18]: > 100 µM (inactive) | GI50 [19]: > 100 µM (inactive) | GI50 [20]: > 100 µM (inactive) | GI50 [23]: > 100 µM (inactive) | GI50 [24]: > 100 µM (inactive) | GI50 [25]: > 100 µM (inactive) | GI50 [26]: > 100 µM (inactive) | GI50 [27]: > 100 µM (inactive) | GI50 [28]: > 100 µM (inactive) | GI50 [31]: > 100 µM (inactive) | GI50 [32]: > 100 µM (inactive) | GI50 [34]: > 100 µM (inactive) | GI50 [37]: > 100 µM | GI50 [39]: > 100 µM (inactive) | GI50 [41]: 0.254 µM (active) | GI50 [42]: > 100 µM (inactive) | GI50 [43]: > 100 µM (inactive) | GI50 [44]: > 100 µM (inactive) | GI50 [45]: > 100 µM (inactive) | GI50 [48]: > 100 µM (inactive) | GI50 [49]: > 100 µM (inactive) | GI50 [51]: > 100 µM (inactive) | GI50 [52]: > 100 µM (inactive) | GI50 [53]: > 100 µM (inactive) | GI50 [54]: > 100 µM (inactive) | GI50 [57]: > 100 µM (inactive)

CC(C)(C)c1ccccc1N1C(=O)c2ccc3c4c(ccc(c24)C1=O)N(c1ccccc1C(C)(C)C)C3=O
GI50 [58]: > 100 µM (inactive) | GI50 [1]: > 100 µM (inactive) | GI50 [2]: > 100 µM (inactive) | GI50 [3]: > 100 µM (inactive) | GI50 [4]: 20 µM (inactive) | GI50 [5]: > 100 µM (inactive) | GI50 [6]: > 100 µM (inactive) | GI50 [7]: > 100 µM (inactive) | GI50 [8]: > 100 µM (inactive) | GI50 [9]: > 100 µM (inactive) | GI50 [10]: > 100 µM (inactive) | GI50 [11]: > 100 µM (inactive) | GI50 [12]: 71.3 µM (inactive) | GI50 [13]: > 100 µM (inactive) | GI50 [14]: > 100 µM (inactive) | GI50 [15]: > 100 µM (inactive) | GI50 [16]: > 100 µM (inactive) | GI50 [17]: > 100 µM (inactive) | GI50 [18]: > 100 µM (inactive) | GI50 [20]: > 100 µM (inactive) | GI50 [21]: > 100 µM (inactive) | GI50 [23]: > 100 µM (inactive) | GI50 [24]: > 100 µM (inactive) | GI50 [25]: > 100 µM (inactive) | GI50 [27]: 5.07 µM (inactive) | GI50 [30]: > 100 µM (inactive) | GI50 [31]: > 100 µM (inactive) | GI50 [32]: > 100 µM (inactive) | GI50 [33]: > 100 µM (inactive) | GI50 [59]: 6.43 µM (inactive) | GI50 [34]: > 100 µM (inactive) | GI50 [35]: > 100 µM (inactive) | GI50 [36]: 5.46 µM (inactive) | GI50 [37]: > 100 µM | GI50 [38]: > 100 µM (inactive) | GI50 [39]: > 100 µM (inactive) | GI50 [40]: > 100 µM (inactive) | GI50 [41]: 3.03 µM (inactive) | GI50 [42]: > 100 µM (inactive) | GI50 [43]: > 100 µM (inactive) | GI50 [44]: > 100 µM (inactive) | GI50 [45]: 14.8 µM (inactive) | GI50 [48]: > 100 µM (inactive) | GI50 [49]: > 100 µM (inactive) | GI50 [50]: > 100 µM (inactive) | GI50 [51]: > 100 µM (inactive) | GI50 [53]: > 100 µM (inactive) | GI50 [54]: > 100 µM (inactive) | GI50 [55]: > 100 µM (inactive) | GI50 [56]: > 100 µM (inactive) | GI50 [57]: > 100 µM (inactive)

Cc1cc(OCC(=O)N/N=C/C(Br)=C/c2ccccc2)nc(SCC(=O)N/N=C/C(Br)=C/c2ccccc2)n1
GI50 [58]: 49.4 µM (inactive) | GI50 [1]: > 100 µM (inactive) | GI50 [2]: 23 µM (inactive) | GI50 [3]: > 100 µM (inactive) | GI50 [4]: 54.1 µM (inactive) | GI50 [5]: 28.2 µM (inactive) | GI50 [6]: 53.6 µM (inactive) | GI50 [7]: 39.9 µM (inactive) | GI50 [9]: 51.5 µM (inactive) | GI50 [11]: > 100 µM (inactive) | GI50 [12]: > 100 µM (inactive) | GI50 [13]: > 100 µM (inactive) | GI50 [14]: > 100 µM (inactive) | GI50 [15]: > 100 µM (inactive) | GI50 [16]: 49.1 µM (inactive) | GI50 [17]: > 100 µM (inactive) | GI50 [18]: > 100 µM (inactive) | GI50 [20]: 75.7 µM (inactive) | GI50 [21]: 42 µM (inactive) | GI50 [23]: 39.1 µM (inactive) | GI50 [24]: 52.2 µM (inactive) | GI50 [26]: > 100 µM (inactive) | GI50 [27]: 26.6 µM (inactive) | GI50 [29]: > 100 µM (inactive) | GI50 [30]: > 100 µM (inactive) | GI50 [31]: > 100 µM (inactive) | GI50 [32]: > 100 µM (inactive) | GI50 [33]: 68.5 µM (inactive) | GI50 [59]: 24.9 µM (inactive) | GI50 [34]: 58.3 µM (inactive) | GI50 [37]: > 100 µM | GI50 [38]: > 100 µM (inactive) | GI50 [39]: > 100 µM (inactive) | GI50 [40]: > 100 µM (inactive) | GI50 [41]: 39.9 µM (inactive) | GI50 [42]: 48.2 µM (inactive) | GI50 [44]: > 100 µM (inactive) | GI50 [45]: 80 µM (inactive) | GI50 [47]: > 100 µM (inactive) | GI50 [48]: > 100 µM (inactive) | GI50 [49]: > 100 µM (inactive) | GI50 [51]: > 100 µM (inactive) | GI50 [53]: > 100 µM (inactive) | GI50 [54]: 34.8 µM (inactive) | GI50 [55]: > 100 µM (inactive) | GI50 [56]: > 100 µM (inactive) | GI50 [57]: > 100 µM (inactive)

Reference: ChEMBL document CHEMBL1201862, “PubChem BioAssay data set” (2004)
